Test results taken from article PMC11999280, “Design and screening of novel endosomal escape compounds that enhance functional delivery of oligonucleotides in vitro” (Molecular Therapy. Nucleic Acids, 2025).

Experiments:
Format in all cases: cell-based
[1] = system: mCherry-GAL9 expressing HEK293 cells; test: GAL9 recruitment assay, HEK293; conditions: calculated mean from >3 independent exp.
Summary of the method: (§1)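 Readout is GAL9 relocalization to damaged endosomes, scored as mCherry-GAL9 structures counted in confocal images after fixation in 4% paraformaldehyde and Hoechst 33342 nuclear staining. Compounds were applied in dose-response to stably expressing cells seeded one day earlier; three independent experiments with duplicate wells.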

[2] = system: mCherry-GAL9 expressing HepG2 cells; test: GAL9 recruitment assay, HepG2; conditions: calculated mean from >3 independent exp.
Summary of the method: as §1

[3] = system: mCherry-GAL9 expressing NCI-H358 cells; test: GAL9 recruitment assay, NCI-H358; conditions: calculated mean from >3 independent exp.
Summary of the method: as §1

[4] = system: mCherry-GAL9 expressing SHSY5Y cells; test: GAL9 recruitment assay, SHSY5Y; conditions: calculated mean from >3 independent exp.
Summary of the method: as §1

[5] = system: mCherry-GAL9 expressing HeLa cells; test: GAL9 recruitment assay, HeLa; conditions: calculated mean from >3 independent exp.
Summary of the method: as §1

[6] = system: mCherry-GAL9 expressing 16HBE cells; test: GAL9 recruitment assay, 16HBE; conditions: calculated mean from >3 independent exp.
Summary of the method: as §1

[7] = system: mCherry-GAL9 expressing HuH7 cells; test: GAL9 recruitment assay, HuH7; conditions: calculated mean from >3 independent exp.
Summary of the method: as §1

[8] = system: HeLa_Luc705 cells (pLuc/705 splice-switching reporter); test: Functional 705-SSO delivery, luciferase splice-switching assay; conditions: for Luciferase expression compared to reference: mean from >3 independent experiments
Summary of the method: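 Cells seeded at 10,000/well were pre-incubated 24 h with 1–2 μM 2′-O-methyl phosphorothioate 705-SSO, then exposed to endosomal escape enhancer at the stated concentrations. After 24 h, cells were lysed in 0.1% Triton X-100 and firefly luciferase luminescence was read as the splice-correction signal. LF2000 lipofection with 100–200 nM SSO served as transfection control.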

[9] = system: cell lines carrying an mCherry-GAL9-reporter; test: GAL9 puncta formation upon EEE dose escalation (images); conditions: dose escalation 0.31 to 10 μM
Procedure: We further studied endosomal leakage by quantifying GAL9 recruitment upon EEE dose escalation, from 0.31 to 10 μM. For this purpose, we used cell lines carrying an mCherry-GAL9-reporter, where endosomal rupture could be quantified by measuring GAL9 clustering as a puncta event representative of endosomal remodeling.
Experiments assessing GAL9 localization as an indicator for endosomal remodeling were performed as previously described[15] using 8× stablemCherry-GAL9 expressing cell lines, SHSY5Y, U2OS, 16HBE, NCI-H358, HuH7, HepG2, HEK293, and HeLa. For mCherry-GAL9 recruitment, 3,000 or 6,500 cells/well (depending upon cell line) were seeded into 384-well CellCarrier Ultra plates 24 h prior to treatment (PerkinElmer, catalog no. 6007558). An Echo 655T acoustic dispenser (Labcyte) was used for EEE dose-response preparation by transferring to the cell plate. At assay endpoints, cells were PBS washed, 4% paraformaldehyde fixed at room temperature […] (VWR, catalog no. 9713.1000), and nuclei stained with PBS +1 μg/mL Hoechst 33342 (Thermo Fisher Scientific, catalog no. H21492).
Imaging was performed using a spinning-disk confocal microscope (Yokogawa: CV8000) with a ×20w objective (numerical aperture 1.0). Cells and mCherry-GAL9 structure identification and quantification were done using Columbus image-analysis software (PerkinElmer version 2.9.0). […]

[10] = system: mCherry-GAL9 expressing U2OS cells; test: GAL9 recruitment assay, U2OS; conditions: calculated mean from >3 independent exp.
Summary of the method: as §1

[11] = system: PPIB mRNA in primary human hepatocytes; test: PPIB siRNA knockdown, qPCR; conditions: EEE32 at 2 μM with GalNAc-siPPIB
Procedure: Studies of siRNA knockdown therapeutics were performed in primary human hepatocytes using EEE32-mediated enhancement. We aimed to target peptidylpropyl isomerase B (PPIB) mRNA by using siRNA (siPPIB) either alone or together with the EEE32 and comparing them with GalNAc-conjugated siRNA (GalNAc-siPPIB), which is considered a potent human liver uptake enhancer.[30] […] However, the use of EEE32 at a 2-μM concentration enhanced GalNAc-siPPIB activity, improving the knockdown capacity by approximately 10-fold (Figure 5B, top). Additionally, no significant differences indicating compromised cell viability were observed when measuring systematic decreases in RNA yield from both groups (Figure 5B, bottom).
Human primary hepatocytes obtained from a commercial supplier (QNT lot, BioIVT) were cultured in rat tail collagen I-coated 96-well plates (Corning, catalog no. 354407) using William’s E Medium (A1217601,Thermo Fisher) supplemented with thawing and plating supplements (Thermo Fisher, catalog no. CM3000) (day 0). […]

[12] = HeLa-Luc705 + 1 µM SSO, EEE 0.5 µM
[13] = HeLa-Luc705 + 1 µM SSO, EEE 2 µM
[14] = HeLa-Luc705 + 1 µM SSO, EEE 4 µM
[15] = HeLa-Luc705 + 1 µM SSO, EEE 5 µM

## COc1nn(C2CCN(C)CC2)cc1Nc1ncc(F)c(-n2ccc3c(C#N)cccc32)n1 [EEE8]
[1]; EEE 0.31 µM
  Gal9 response compared to reference: 0.027
[1]; EEE 0.62 µM
  Gal9 response compared to reference: 0.052
[1]; EEE 1.25 µM
  Gal9 response compared to reference: 0.309
[1]; EEE 2.5 µM
  Gal9 response compared to reference: 0.657
[1]; EEE 5 µM
  Gal9 response compared to reference: 0.605
[1]; EEE 10 µM
  Gal9 response compared to reference: 0.329
[2]; EEE 0.31 µM
  Gal9 response compared to reference: 0.007
[2]; EEE 0.62 µM
  Gal9 response compared to reference: 0.008
[2]; EEE 1.25 µM
  Gal9 response compared to reference: 0.011
[2]; EEE 2.5 µM
  Gal9 response compared to reference: 0.075
[2]; EEE 5 µM
  Gal9 response compared to reference: 0.511
[2]; EEE 10 µM
  Gal9 response compared to reference: 0.529
[3]; EEE 0.31 µM
  Gal9 response compared to reference: 0.017
[3]; EEE 0.62 µM
  Gal9 response compared to reference: 0.032
[3]; EEE 1.25 µM
  Gal9 response compared to reference: 0.148
[3]; EEE 2.5 µM
  Gal9 response compared to reference: 0.553
[3]; EEE 5 µM
  Gal9 response compared to reference: 0.623
[3]; EEE 10 µM
  Gal9 response compared to reference: 0.457
[4]; EEE 0.31 µM
  Gal9 response compared to reference: 0.014
[4]; EEE 0.62 µM
  Gal9 response compared to reference: 0.082
[4]; EEE 1.25 µM
  Gal9 response compared to reference: 0.694
[4]; EEE 2.5 µM
  Gal9 response compared to reference: 0.629
[4]; EEE 5 µM
  Gal9 response compared to reference: 0.567
[4]; EEE 10 µM
  Gal9 response compared to reference: 0.278
[5]; EEE 0.31 µM
  Gal9 response compared to reference: 0.004
[5]; EEE 0.62 µM
  Gal9 response compared to reference: 0.009
[5]; EEE 1.25 µM
  Gal9 response compared to reference: 0.105
[5]; EEE 2.5 µM
  Gal9 response compared to reference: 0.319
[5]; EEE 5 µM
  Gal9 response compared to reference: 0.459
[5]; EEE 10 µM
  Gal9 response compared to reference: 0.198
[6]; EEE 0.31 µM
  Gal9 response compared to reference: 0.011
[6]; EEE 0.62 µM
  Gal9 response compared to reference: 0.035
[6]; EEE 1.25 µM
  Gal9 response compared to reference: 0.180
[6]; EEE 2.5 µM
  Gal9 response compared to reference: 0.503
[6]; EEE 5 µM
  Gal9 response compared to reference: 0.638
[6]; EEE 10 µM
  Gal9 response compared to reference: 0.492
[7]; EEE 0.31 µM
  Gal9 response compared to reference: 0.010
[7]; EEE 0.62 µM
  Gal9 response compared to reference: 0.016
[7]; EEE 1.25 µM
  Gal9 response compared to reference: 0.078
[7]; EEE 2.5 µM
  Gal9 response compared to reference: 0.313
[7]; EEE 5 µM
  Gal9 response compared to reference: 0.228
[7]; EEE 10 µM
  Gal9 response compared to reference: 0.160
[8]; [12]
  Luciferase expression compared to reference: 0.717
[8]; [13]
  Luciferase expression compared to reference: 2.253
[8]; [14]
  Luciferase expression compared to reference: 11.227
[8]; [15]
  Luciferase expression compared to reference: 31.147
[8]; HeLa-Luc705 + 2 µM SSO, EEE 5 µM
  Luciferase expression compared to reference: 52.876
[8]; dose-response, 1 μM SSO
  EEE dose required to show splice-switching above 10-fold normalized to SSO only: 4.5 μM
[9]
  EEE concentration with clear GAL9 puncta formation: ≥ 1.25 µM
[10]; EEE 0.31 µM
  Gal9 response compared to reference: 0.012
[10]; EEE 0.62 µM
  Gal9 response compared to reference: 0.013
[10]; EEE 1.25 µM
  Gal9 response compared to reference: 0.029
[10]; EEE 2.5 µM
  Gal9 response compared to reference: 0.234
[10]; EEE 5 µM
  Gal9 response compared to reference: 0.490
[10]; EEE 10 µM
  Gal9 response compared to reference: 0.563

## COc1nn(C2CCNC(C)(C)C2)cc1Nc1ncc(F)c(-n2ccc3c(C#N)cccc32)n1 (centres unmarked) [EEE32]
[8]; [12]
  Luciferase expression compared to reference: 3.743
[8]; [13]
  Luciferase expression compared to reference: 115.294
[8]; [14]
  Luciferase expression compared to reference: 111.401
[8]; [15]
  Luciferase expression compared to reference: 66.337
[8]; dose response, luciferase readout at time points after EEE addition
  Splice-switching with 24-h SSO pre-incubation relative to SSO co-treatment: around 17 times
[8]; using 2–2.5 μM EEE
  Splice-switching enhancement: above 100 fold
[11]
  Improvement of GalNAc-siPPIB knockdown capacity: approximately 10 fold
